Laboratory results from PubChem BioAssay (NCI).
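48-hour exposure; five concentrations; linearly interpolated endpoints. TGI: concentration producing complete growth inhibition.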

What was measured:
Experiment in all cases: NCI-60 cell line screen, 48 h
786-0 renal = test system: 786-0 renal
A498 renal = test system: A498 renal
A549 NSCLC = test system: A549 NSCLC
ACHN renal = test system: ACHN renal
BT-549 breast = test system: BT-549 breast
CAKI-1 renal = test system: CAKI-1 renal
CCRF-CEM leukemia = test system: CCRF-CEM leukemia
COLO 205 colon = test system: COLO 205 colon
DU-145 prostate = test system: DU-145 prostate
EKVX NSCLC = test system: EKVX NSCLC
HCC-2998 colon = test system: HCC-2998 colon
HCT-116 colon = test system: HCT-116 colon
HCT-15 colon = test system: HCT-15 colon
HL-60(TB) leukemia = test system: HL-60(TB) leukemia
HOP-62 NSCLC = test system: HOP-62 NSCLC
HOP-92 NSCLC = test system: HOP-92 NSCLC
HS 578T breast = test system: HS 578T breast
HT29 colon = test system: HT29 colon
IGROV1 ovarian = test system: IGROV1 ovarian
K-562 leukemia = test system: K-562 leukemia
KM12 colon = test system: KM12 colon
LOX IMVI melanoma = test system: LOX IMVI melanoma
M14 melanoma = test system: M14 melanoma
MALME-3M melanoma = test system: MALME-3M melanoma
MCF7 breast = test system: MCF7 breast
MDA-MB-231 breast = test system: MDA-MB-231 breast
MDA-MB-435 = test system: MDA-MB-435
MDA-N = test system: MDA-N
NCI-H226 lung = test system: NCI-H226 lung
NCI-H23 lung = test system: NCI-H23 lung
NCI-H460 lung = test system: NCI-H460 lung
NCI-H522 lung = test system: NCI-H522 lung
NCI/ADR-RES ovarian = test system: NCI/ADR-RES ovarian
OVCAR-3 ovarian = test system: OVCAR-3 ovarian
OVCAR-4 ovarian = test system: OVCAR-4 ovarian
OVCAR-5 ovarian = test system: OVCAR-5 ovarian
OVCAR-8 ovarian = test system: OVCAR-8 ovarian
PC-3 prostate = test system: PC-3 prostate
RPMI-8226 leukemia = test system: RPMI-8226 leukemia
RXF 393 renal = test system: RXF 393 renal
SF-268 CNS = test system: SF-268 CNS
SF-295 CNS = test system: SF-295 CNS
SF-539 CNS = test system: SF-539 CNS
SK-MEL-2 melanoma = test system: SK-MEL-2 melanoma
SK-MEL-28 melanoma = test system: SK-MEL-28 melanoma
SK-MEL-5 melanoma = test system: SK-MEL-5 melanoma
SN12C renal = test system: SN12C renal
SNB-19 CNS = test system: SNB-19 CNS
SNB-75 CNS = test system: SNB-75 CNS
SR leukemia = test system: SR leukemia
SW-620 colon = test system: SW-620 colon
T-47D breast = test system: T-47D breast
TK-10 renal = test system: TK-10 renal
U251 CNS = test system: U251 CNS
UACC-257 melanoma = test system: UACC-257 melanoma
UACC-62 melanoma = test system: UACC-62 melanoma
UO-31 renal = test system: UO-31 renal

**Q.** Which TGI (786-0 renal) does the source give for `O=c1[nH]nc(Nc2ccc(Cl)cc2)c2nnn(C3CCCCC3)c12` here?
**A.** 31.4 µM

**Q.** And the TGI (A498 renal)?
**A.** > 100 µM

**Q.** And the TGI (A549 NSCLC)?
**A.** > 100 µM

**Q.** What about the TGI (ACHN renal) of the same compound?
**A.** > 100 µM

**Q.** What about the TGI (BT-549 breast) of the same compound?
**A.** > 100 µM

**Q.** What about the TGI (CAKI-1 renal) of the same compound?
**A.** 51.8 µM

**Q.** What about the TGI (CCRF-CEM leukemia) of the same compound?
**A.** > 100 µM

**Q.** What about the TGI (COLO 205 colon) of the same compound?
**A.** > 100 µM

**Q.** And the TGI (DU-145 prostate)?
**A.** > 100 µM

**Q.** And the TGI (EKVX NSCLC)?
**A.** > 100 µM

**Q.** What about the TGI (HCC-2998 colon) of the same compound?
**A.** > 100 µM

**Q.** And the TGI (HCT-116 colon)?
**A.** > 100 µM

**Q.** And the TGI (HCT-15 colon)?
**A.** > 100 µM

**Q.** What about the TGI (HL-60(TB) leukemia) of the same compound?
**A.** > 100 µM

**Q.** What about the TGI (HOP-62 NSCLC) of the same compound?
**A.** > 100 µM

**Q.** And the TGI (HOP-92 NSCLC)?
**A.** 66 µM

**Q.** What about the TGI (HS 578T breast) of the same compound?
**A.** > 100 µM

**Q.** What about the TGI (HT29 colon) of the same compound?
**A.** > 100 µM

**Q.** What about the TGI (IGROV1 ovarian) of the same compound?
**A.** > 100 µM

**Q.** What about the TGI (K-562 leukemia) of the same compound?
**A.** > 100 µM

**Q.** What about the TGI (KM12 colon) of the same compound?
**A.** > 100 µM

**Q.** And the TGI (LOX IMVI melanoma)?
**A.** 43.3 µM

**Q.** What about the TGI (M14 melanoma) of the same compound?
**A.** > 100 µM

**Q.** What about the TGI (MALME-3M melanoma) of the same compound?
**A.** > 100 µM

**Q.** What about the TGI (MCF7 breast) of the same compound?
**A.** > 100 µM

**Q.** What about the TGI (MDA-MB-231 breast) of the same compound?
**A.** 45.2 µM

**Q.** And the TGI (MDA-MB-435)?
**A.** > 100 µM

**Q.** What about the TGI (MDA-N) of the same compound?
**A.** > 100 µM

**Q.** And the TGI (NCI-H226 lung)?
**A.** > 100 µM

**Q.** And the TGI (NCI-H23 lung)?
**A.** > 100 µM

**Q.** What about the TGI (NCI-H460 lung) of the same compound?
**A.** > 100 µM

**Q.** And the TGI (NCI-H522 lung)?
**A.** 81.7 µM

**Q.** And the TGI (NCI/ADR-RES ovarian)?
**A.** > 100 µM

**Q.** What about the TGI (OVCAR-3 ovarian) of the same compound?
**A.** > 100 µM

**Q.** What about the TGI (OVCAR-4 ovarian) of the same compound?
**A.** 43.1 µM

**Q.** What about the TGI (OVCAR-5 ovarian) of the same compound?
**A.** > 100 µM

**Q.** And the TGI (OVCAR-8 ovarian)?
**A.** 34.3 µM

**Q.** What about the TGI (PC-3 prostate) of the same compound?
**A.** > 100 µM

**Q.** What about the TGI (RPMI-8226 leukemia) of the same compound?
**A.** > 100 µM

**Q.** And the TGI (RXF 393 renal)?
**A.** 92.8 µM

**Q.** What about the TGI (SF-268 CNS) of the same compound?
**A.** > 100 µM

**Q.** And the TGI (SF-295 CNS)?
**A.** > 100 µM

**Q.** And the TGI (SF-539 CNS)?
**A.** > 100 µM

**Q.** What about the TGI (SK-MEL-2 melanoma) of the same compound?
**A.** > 100 µM

**Q.** And the TGI (SK-MEL-28 melanoma)?
**A.** > 100 µM

**Q.** What about the TGI (SK-MEL-5 melanoma) of the same compound?
**A.** > 100 µM

**Q.** What about the TGI (SN12C renal) of the same compound?
**A.** > 100 µM

**Q.** What about the TGI (SNB-19 CNS) of the same compound?
**A.** > 100 µM

**Q.** And the TGI (SNB-75 CNS)?
**A.** > 100 µM

**Q.** And the TGI (SR leukemia)?
**A.** 43.3 µM

**Q.** What about the TGI (SW-620 colon) of the same compound?
**A.** > 100 µM

**Q.** And the TGI (T-47D breast)?
**A.** > 100 µM

**Q.** What about the TGI (TK-10 renal) of the same compound?
**A.** > 100 µM

**Q.** What about the TGI (U251 CNS) of the same compound?
**A.** 91 µM

**Q.** What about the TGI (UACC-257 melanoma) of the same compound?
**A.** > 100 µM

**Q.** What about the TGI (UACC-62 melanoma) of the same compound?
**A.** > 100 µM

**Q.** And the TGI (UO-31 renal)?
**A.** > 100 µM
